From US4446315A, “Adenosine 5'-triphosphate-4-carboxamide-ribofuranosylthiazole” (The United States of America as represented by the …, priority 1982, dated 1984) come the findings set out here.

“Also recorded” adds a separate entry of the source. Like-named read-outs stand apart in the source and are kept apart here.

Experiment [1] deals with bacterial IMP dehydrogenase. Put plainly: Inhibition of bacterial IMP dehydrogenase. Format: biochemical. Particulars: chemically synthesized TAD; read-out: Ki against bacterial IMP dehydrogenase.
For experiment [2], the system named is P388 leukemic cells. Put plainly: Cytotoxicity against P388 leukemic cells in culture. Format: cell-based. To be noted: Mus musculus, read-out: Cytotoxicity Against P388 Leukemic Cells in Culture IC50 (median inhibitory concentration).
Experiment [3] in a line: Antitumor activity of the metabolite administered as such. Particulars: compared with progenitor TR; initial experiments.

As to `NC(=O)c1csc([C@@H]2O[C@H](COP(=O)(O)OP(=O)(O)OC[C@H]3O[C@@H](n4cnc5c(N)ncnc54)[C@H](O)[C@@H]3O)[C@@H](O)[C@H]2O)n1` [TAD, adenosine 5'-(trihydrogen diphosphate) 5'→5'-ester with 4-carboxamide-2-β-D-ribofuranosylthiazole], the Ki in experiment [1] turned out to be 3.4 µM. For the same compound, the IC50 in experiment [2] (P388, chemically synthesized TAD) amounted to 3.5 µM; in experiment [2] (P388, enzymatically (biologically) synthesized TAD), 2.5 µM. The Antitumor activity entry in experiment [3] is on record as “active when administered as such; also recorded: superior to that of its progenitor”.

Usually Ki stands for the equilibrium dissociation constant of an inhibitor or competing ligand from its target.
